Results from ChEMBL document CHEMBL1201862, “PubChem BioAssay data set” (2004).
The source made the active and inactive calls.

Assays:
[1] = tested on: DLD-1; assay: DLD-1 cell viability reduction – luminescence, round 1, cytotoxicity control for KLF5 inhibitor project, late-stage follow-up (AID 485338); assay type: functional, cell-based; details: Homo sapiens
[2] = Luminescence-based counterscreen assay for KLF5 inhibitors: dose response cell-based high throughput screening assay to identify cytotoxic compounds using the IEC-6 intestinal epithelial cell line. [Related pubchem assays: 1700 (Primary screen.), 1834 (Confirmation screen.), 1858 (Summary AID.), 1905 (Counterscreen.)]; assay type: functional
[3] = target: G-protein coupled receptor 55 (Homo sapiens, UniProt Q9Y2T6); assay: selective activators of receptor GPR55 – imaging, U2OS cells, beta-arrestin-GFP redistribution, primary screen (AID 1961); assay type: functional
Chain of G-protein coupled receptor 55 (Q9Y2T6 whole entry): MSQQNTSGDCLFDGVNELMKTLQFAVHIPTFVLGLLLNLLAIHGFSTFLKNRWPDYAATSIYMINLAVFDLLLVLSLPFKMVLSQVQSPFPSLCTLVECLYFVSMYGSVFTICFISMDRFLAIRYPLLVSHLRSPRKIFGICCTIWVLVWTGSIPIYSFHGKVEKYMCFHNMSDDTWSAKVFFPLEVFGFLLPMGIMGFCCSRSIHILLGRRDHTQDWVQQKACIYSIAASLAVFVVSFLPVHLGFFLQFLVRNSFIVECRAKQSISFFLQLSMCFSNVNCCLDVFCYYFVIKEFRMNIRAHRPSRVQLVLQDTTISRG

[4] = target: T1, Tyrosine-protein phosphatase non-receptor type 22 (Homo sapiens, UniProt Q9Y2R2); assay: SAR LYP1 Fluorescent Assay using OMFP substrate for In Vitro dose response studies - Set 3. [Related pubchem assays (depositor defined):AID1779, AID1784, AID2140, AID2686]; assay type: functional
T1 sequence (Q9Y2R2 whole entry): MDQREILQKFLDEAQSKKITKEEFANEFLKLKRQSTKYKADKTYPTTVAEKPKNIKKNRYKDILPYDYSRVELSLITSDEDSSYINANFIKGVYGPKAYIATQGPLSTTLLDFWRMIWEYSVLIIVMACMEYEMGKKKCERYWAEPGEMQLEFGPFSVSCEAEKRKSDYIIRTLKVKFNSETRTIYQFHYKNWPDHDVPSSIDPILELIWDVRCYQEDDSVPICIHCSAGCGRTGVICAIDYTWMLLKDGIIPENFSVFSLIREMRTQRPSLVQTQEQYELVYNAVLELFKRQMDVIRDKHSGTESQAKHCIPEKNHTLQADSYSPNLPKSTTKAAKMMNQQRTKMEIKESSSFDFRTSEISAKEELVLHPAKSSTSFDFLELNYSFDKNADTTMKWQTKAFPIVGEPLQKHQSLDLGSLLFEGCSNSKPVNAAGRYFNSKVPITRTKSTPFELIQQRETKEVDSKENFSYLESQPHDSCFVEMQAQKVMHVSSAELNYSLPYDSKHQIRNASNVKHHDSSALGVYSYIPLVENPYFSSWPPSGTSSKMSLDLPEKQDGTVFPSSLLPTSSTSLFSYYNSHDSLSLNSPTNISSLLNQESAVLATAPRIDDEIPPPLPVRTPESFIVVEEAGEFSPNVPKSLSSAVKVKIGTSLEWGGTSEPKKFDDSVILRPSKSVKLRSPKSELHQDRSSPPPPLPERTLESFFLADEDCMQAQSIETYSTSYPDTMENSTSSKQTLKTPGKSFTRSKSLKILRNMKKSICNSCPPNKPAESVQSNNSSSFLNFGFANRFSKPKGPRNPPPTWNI

[5] = target: Tyrosine-protein phosphatase non-receptor type 12 (Homo sapiens, UniProt Q05209); assay: SAR Selectivity Analysis of small molecule inhibitors of PEST using pCAP in a fluorescence assay. [Related pubchem assays (depositor defined):AID1779, AID1784, AID2135]; assay type: functional
[6] = target: T1, Tyrosine-protein phosphatase non-receptor type 22; assay: inhibition of lymphoid tyrosine phosphatase LYP – biochemical, pCAP fluorogenic substrate, fluorescence, set 3, SAR follow-up (AID 449727); assay type: functional
[7] = tested on: T-cell; assay: loss of vesicle association with mouse CD8+ T cells – mouse 2C CD8+ T cells, flow cytometry, dose response (AID 485284); assay type: functional
[8] = target: Integrin alpha-L (Mus musculus, UniProt P24063); assay: modulators of CD8 T cell-vesicle binding, dose response, powder samples, mouse 2C CD8+ cells (AID 504565); assay type: functional
[9] = target: Beta Lactamase (Pseudomonas aeruginosa, UniProt Q932Y6); assay: BLA reporter interference, concentration series – BLA reporter cells, FRET fluorescence, artefact control for NOD2-RIPK2 interaction inhibitor project, dose response (AID 651552); assay type: functional, cell-based
Chain of Beta Lactamase (Q932Y6 whole entry, the tested form may be a part): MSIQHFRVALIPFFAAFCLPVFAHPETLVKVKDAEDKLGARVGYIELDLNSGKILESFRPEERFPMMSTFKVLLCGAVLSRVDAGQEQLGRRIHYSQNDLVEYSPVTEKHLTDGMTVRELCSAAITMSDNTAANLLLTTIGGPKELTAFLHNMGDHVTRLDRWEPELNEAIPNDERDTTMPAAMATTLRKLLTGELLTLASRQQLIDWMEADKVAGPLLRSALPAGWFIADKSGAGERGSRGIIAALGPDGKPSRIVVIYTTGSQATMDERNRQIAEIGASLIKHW

[10] = Fluorescence-based cell-based high throughput dose response assay for inhibitors of the interaction of nucleotide-binding oligomerization domain containing 2 (NOD2) and the receptor-interacting serine-threonine kinase 2 (RIPK2).; assay type: functional; details: Homo sapiens
[11] = target: Hexokinase (Trypanosoma brucei, UniProt Q38C41); assay: Confirmation assay for inhibitors of Trypanosoma brucei hexokinase 1-Analogue-first series. [Related pubchem assays (depositor defined):AID1430, AID1632, AID2516, AID2560, AID2579, AID2600, AID449725, AID492951]; assay type: functional
Chain of Hexokinase (Q38C41 whole entry): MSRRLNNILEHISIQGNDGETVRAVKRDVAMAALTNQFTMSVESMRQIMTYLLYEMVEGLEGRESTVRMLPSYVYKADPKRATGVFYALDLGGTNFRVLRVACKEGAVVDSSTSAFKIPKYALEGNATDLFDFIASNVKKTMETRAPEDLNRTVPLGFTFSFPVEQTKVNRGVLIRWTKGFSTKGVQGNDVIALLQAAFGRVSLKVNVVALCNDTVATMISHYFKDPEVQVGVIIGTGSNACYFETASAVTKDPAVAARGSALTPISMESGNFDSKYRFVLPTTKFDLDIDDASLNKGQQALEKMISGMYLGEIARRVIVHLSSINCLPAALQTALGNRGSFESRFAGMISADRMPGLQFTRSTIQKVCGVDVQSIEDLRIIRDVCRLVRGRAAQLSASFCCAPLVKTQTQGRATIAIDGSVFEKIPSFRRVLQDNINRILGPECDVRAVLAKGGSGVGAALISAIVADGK

[12] = target: Glucose-6-phosphate 1-dehydrogenase (Homo sapiens, UniProt P11413); assay: inhibition of Homo sapiens G6PD, dose series – biochemical, fluorescence, selectivity assay for P. falciparum G6PD inhibitor project, dose response (AID 504792); assay type: functional
Chain of Glucose-6-phosphate 1-dehydrogenase (P11413 whole entry): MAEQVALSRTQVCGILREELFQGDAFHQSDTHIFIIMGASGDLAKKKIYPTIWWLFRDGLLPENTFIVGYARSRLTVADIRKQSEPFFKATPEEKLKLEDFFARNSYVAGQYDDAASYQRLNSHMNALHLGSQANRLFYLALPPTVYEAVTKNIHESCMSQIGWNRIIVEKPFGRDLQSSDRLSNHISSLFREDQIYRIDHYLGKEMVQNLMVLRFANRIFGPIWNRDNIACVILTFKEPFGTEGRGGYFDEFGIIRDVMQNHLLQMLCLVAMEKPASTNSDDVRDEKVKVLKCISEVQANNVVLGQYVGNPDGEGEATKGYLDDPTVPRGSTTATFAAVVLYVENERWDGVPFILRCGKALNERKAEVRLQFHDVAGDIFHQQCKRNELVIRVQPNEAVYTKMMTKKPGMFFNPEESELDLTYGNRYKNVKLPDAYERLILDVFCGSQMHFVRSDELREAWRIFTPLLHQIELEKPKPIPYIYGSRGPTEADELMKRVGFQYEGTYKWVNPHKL

[13] = target: Genome polyprotein (dengue virus type 2, UniProt P29990); assay: flavivirus cap methylation enzyme inhibition – biochemical, confirmation dose response, primary screen (AID 588689); assay type: functional
Chain of Genome polyprotein (P29990 2492-3391 limits assumed): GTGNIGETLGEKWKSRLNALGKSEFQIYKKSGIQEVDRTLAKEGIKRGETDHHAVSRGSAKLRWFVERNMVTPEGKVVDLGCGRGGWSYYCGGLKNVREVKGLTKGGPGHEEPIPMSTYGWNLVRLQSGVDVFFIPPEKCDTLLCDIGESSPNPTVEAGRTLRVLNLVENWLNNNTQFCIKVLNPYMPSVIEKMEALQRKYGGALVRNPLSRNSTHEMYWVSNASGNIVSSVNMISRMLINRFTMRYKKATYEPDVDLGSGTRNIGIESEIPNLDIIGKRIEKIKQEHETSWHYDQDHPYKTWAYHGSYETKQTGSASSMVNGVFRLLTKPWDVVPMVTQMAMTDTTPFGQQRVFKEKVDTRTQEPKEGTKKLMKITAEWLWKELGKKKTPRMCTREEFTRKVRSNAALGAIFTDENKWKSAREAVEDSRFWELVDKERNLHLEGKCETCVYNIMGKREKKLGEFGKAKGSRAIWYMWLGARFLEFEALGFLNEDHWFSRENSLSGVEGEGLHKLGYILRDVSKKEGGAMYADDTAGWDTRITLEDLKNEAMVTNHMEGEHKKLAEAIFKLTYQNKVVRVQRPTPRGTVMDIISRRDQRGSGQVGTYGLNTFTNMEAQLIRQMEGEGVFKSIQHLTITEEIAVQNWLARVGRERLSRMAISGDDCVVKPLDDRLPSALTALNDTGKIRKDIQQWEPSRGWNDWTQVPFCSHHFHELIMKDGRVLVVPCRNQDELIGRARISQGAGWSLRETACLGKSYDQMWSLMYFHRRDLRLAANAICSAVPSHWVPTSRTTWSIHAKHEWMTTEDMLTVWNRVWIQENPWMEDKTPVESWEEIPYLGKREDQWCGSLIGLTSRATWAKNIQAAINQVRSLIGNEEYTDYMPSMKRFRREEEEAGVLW

[14] = target: T2, Small ubiquitin-related modifier 1 (Homo sapiens, UniProt P63165); assay: SUMO1 protein interaction blockers, potency – biochemical, fluorescence polarization, uHTS hits, dose response (AID 624382); assay type: functional; details: read-out: IC50_Mean
T2 sequence (P63165 whole entry): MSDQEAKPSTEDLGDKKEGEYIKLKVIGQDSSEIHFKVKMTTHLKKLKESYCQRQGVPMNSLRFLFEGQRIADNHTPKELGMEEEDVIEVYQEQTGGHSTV

[15] = target: T3, ORF 73 (Human herpesvirus 8, UniProt O40947); assay: KSHV LANA DNA-binding disruption – biochemical, fluorescence polarization, cherry-picked samples, dose response (AID 504725); design: species or system Human gammaherpesvirus 8;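 note: fluorescence polarization of a labeled DNA duplex reporting LANA DNA binding; potency is for inhibitors that block LANA binding to the DNA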
T3 sequence (O40947 whole entry): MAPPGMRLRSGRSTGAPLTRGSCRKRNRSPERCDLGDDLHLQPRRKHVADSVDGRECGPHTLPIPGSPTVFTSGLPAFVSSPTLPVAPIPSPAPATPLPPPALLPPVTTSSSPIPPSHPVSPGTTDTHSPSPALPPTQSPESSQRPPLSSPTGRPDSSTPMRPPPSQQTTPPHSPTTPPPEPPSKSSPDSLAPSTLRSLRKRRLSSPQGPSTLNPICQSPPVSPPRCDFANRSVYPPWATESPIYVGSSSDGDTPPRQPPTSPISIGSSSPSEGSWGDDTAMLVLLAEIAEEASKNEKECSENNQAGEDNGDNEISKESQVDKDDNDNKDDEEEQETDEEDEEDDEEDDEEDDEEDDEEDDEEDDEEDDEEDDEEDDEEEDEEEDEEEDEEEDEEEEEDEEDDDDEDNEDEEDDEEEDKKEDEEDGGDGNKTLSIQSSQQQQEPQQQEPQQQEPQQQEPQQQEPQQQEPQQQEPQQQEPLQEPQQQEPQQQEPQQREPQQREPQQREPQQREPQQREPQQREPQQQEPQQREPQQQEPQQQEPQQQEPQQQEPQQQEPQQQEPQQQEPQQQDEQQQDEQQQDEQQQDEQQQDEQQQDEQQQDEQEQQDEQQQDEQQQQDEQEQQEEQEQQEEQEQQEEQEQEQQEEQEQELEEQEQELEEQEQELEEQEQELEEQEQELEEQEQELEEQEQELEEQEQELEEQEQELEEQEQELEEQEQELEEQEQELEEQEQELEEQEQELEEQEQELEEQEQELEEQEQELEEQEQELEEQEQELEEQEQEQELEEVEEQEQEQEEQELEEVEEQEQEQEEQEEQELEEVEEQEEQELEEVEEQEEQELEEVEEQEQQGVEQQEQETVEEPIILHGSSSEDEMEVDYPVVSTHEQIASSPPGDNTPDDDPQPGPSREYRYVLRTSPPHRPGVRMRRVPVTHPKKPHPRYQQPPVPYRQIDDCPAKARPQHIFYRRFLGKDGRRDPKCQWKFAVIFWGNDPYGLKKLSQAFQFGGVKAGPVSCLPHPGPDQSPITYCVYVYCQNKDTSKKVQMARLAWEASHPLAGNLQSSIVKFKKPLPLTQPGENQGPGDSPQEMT

[16] = target: T2, Small ubiquitin-related modifier 1; assay: SUMO1 protein-protein binding blockers, potency – biochemical, FRET, dose response (AID 624383); assay type: functional; details: read-out: IC50_Mean
[17] = tested on: Salmon testes DNA; assay: acridine orange-DNA binding displacement – biochemical, fluorescence polarization, cherry-picked samples, set 2, artefact control for KSHV LANA DNA-binding inhibitor project, dose response (AID 504727); design: species or system Salmonidae
[18] = target: T4, Rac GTPase-activating protein 1 (Homo sapiens, UniProt Q9H0H5); assay: blockers of MgcRacGAP-driven Rac1 GTP hydrolysis – biochemical, ADP Hunter fluorescence, primary and confirmatory, confirmation (AID 624330); assay type: functional
T4 sequence (Q9H0H5 whole entry): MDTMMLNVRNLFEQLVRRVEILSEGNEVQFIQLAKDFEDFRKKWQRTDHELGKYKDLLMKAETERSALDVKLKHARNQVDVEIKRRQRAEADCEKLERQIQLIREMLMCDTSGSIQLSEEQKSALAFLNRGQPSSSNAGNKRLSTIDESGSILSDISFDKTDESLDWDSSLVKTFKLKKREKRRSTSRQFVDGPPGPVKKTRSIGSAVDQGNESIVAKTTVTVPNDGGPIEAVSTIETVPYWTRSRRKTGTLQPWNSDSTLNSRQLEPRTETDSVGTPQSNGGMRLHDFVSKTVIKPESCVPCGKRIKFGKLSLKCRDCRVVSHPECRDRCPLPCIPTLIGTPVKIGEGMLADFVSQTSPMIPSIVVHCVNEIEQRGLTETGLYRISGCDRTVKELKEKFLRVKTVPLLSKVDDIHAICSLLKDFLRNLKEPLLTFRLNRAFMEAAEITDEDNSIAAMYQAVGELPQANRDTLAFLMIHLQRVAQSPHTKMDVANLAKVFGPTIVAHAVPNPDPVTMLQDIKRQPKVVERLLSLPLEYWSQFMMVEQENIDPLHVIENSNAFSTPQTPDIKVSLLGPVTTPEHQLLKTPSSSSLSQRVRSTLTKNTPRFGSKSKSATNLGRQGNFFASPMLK

[19] = target: Melanin-concentrating hormone receptor 1 (Homo sapiens, UniProt Q99705); assay: Late-stage fluorescence-based counterscreen for antagonists of the G-protein coupled receptor 7 (GPR7): cell-based dose response assay to identify antagonists of the melanin-concentrating hormone receptor 1 (MCHR1). [Related pubchem assays (depositor defined):AID1861, AID1880, AID1952, AID2148, AID2251, AID2257, AID485339]; assay type: functional;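 note: stimulated with 30 nM MCH peptide agonist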
Chain of Melanin-concentrating hormone receptor 1 (Q99705 whole entry): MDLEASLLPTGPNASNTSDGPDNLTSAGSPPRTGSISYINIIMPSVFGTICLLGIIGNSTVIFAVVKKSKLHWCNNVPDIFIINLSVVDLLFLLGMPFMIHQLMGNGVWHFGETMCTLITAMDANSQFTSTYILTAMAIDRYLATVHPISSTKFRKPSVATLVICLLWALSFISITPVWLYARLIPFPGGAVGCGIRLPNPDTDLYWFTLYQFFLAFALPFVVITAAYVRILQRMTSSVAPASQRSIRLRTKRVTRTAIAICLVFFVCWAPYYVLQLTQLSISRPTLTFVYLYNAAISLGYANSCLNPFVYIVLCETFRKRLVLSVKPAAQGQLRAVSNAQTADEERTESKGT

[20] = target: T5, Neuropeptides B/W receptor type 1 (Homo sapiens, UniProt P48145); assay: human NPBW1 receptor blockade, IC50 – cell-based, fluorescence, dose response, late-stage follow-up (AID 463251); assay type: functional
T5 sequence (P48145 whole entry): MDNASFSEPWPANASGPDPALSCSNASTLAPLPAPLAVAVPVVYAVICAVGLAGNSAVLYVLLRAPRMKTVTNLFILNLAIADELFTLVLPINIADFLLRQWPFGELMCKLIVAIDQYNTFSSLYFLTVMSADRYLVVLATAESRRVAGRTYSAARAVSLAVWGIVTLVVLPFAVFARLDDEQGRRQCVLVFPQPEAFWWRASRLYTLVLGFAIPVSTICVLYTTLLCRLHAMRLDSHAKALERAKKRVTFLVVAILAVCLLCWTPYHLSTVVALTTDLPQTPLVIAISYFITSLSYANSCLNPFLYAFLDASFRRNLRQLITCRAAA

[21] = target: Envelope glycoprotein gp160 (Human immunodeficiency virus 1, UniProt Q6QLK5); assay: cell-free HIV fusion peptide-binding blockers – biochemical, uHTS, fluorescence dequenching, […] (AID 1986)
Chain of Envelope glycoprotein gp160 (Q6QLK5 whole entry, the tested form may be a part): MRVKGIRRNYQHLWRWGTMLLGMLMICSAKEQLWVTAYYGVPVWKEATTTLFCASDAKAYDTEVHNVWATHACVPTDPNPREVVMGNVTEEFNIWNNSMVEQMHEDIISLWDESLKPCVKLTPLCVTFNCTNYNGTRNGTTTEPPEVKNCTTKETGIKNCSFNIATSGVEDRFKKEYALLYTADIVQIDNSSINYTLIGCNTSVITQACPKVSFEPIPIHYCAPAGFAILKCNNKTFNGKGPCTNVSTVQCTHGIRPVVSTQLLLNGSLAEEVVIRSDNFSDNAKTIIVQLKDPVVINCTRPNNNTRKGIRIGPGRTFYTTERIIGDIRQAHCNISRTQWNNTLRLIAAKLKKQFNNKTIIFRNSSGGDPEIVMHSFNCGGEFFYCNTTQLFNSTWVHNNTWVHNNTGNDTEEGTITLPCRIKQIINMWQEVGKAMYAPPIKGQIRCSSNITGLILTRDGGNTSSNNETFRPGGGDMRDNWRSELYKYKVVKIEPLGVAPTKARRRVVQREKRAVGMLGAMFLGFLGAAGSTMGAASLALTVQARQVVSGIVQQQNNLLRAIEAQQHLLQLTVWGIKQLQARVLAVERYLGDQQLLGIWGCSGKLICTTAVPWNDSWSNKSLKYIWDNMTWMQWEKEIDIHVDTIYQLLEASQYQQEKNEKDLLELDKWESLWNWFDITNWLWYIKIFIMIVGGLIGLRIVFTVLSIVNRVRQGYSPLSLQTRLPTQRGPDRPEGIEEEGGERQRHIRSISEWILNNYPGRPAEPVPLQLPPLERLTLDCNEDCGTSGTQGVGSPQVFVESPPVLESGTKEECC

## CCOC(=O)c1sc(NC(=O)c2cc3c(s2)CCC(C)C3)nc1C (stereo unspecified)
[1]
  IC50: 19.3 µM (inactive)
[2]
  IC50: > 39.8 µM (not active)

## Cc1ccc(C)n1-n1cnc2sc(-c3ccccc3)cc2c1=O
[3]
  EC50: 8.51 µM (active)

## CCOC(=O)C1=C(C)N=c2sc(=Cc3ccc(OCC(=O)O)cc3)c(=O)n2C1c1ccc(OC(C)C)cc1 (stereo unspecified)
[4]
  IC50: 45.1 µM (active)
[5]
  IC50: 3.85 µM (active)
[6]
  IC50: 25.7 µM (active)

## CCOC(=O)C1CCCN(S(=O)(=O)c2ccc(F)c(C(=O)Nc3ccc(F)c(F)c3)c2)C1 (stereo unspecified)
[7]
  EC50: 0.202 µM (active)
[8]
  EC50: 19.3 µM (active)

## Cc1ccc(NC(=O)Cn2sc3ccccc3c2=O)cc1
[9]
  IC50: 17.7 µM (inactive)
[10]
  IC50: 5.7 µM (active)
[11]
  IC50: 5.18 µM (active)
[12]
  IC50: 15.1 µM (active)

## Nc1cccc2c(O)cc(S(=O)(=O)O)cc12
[13]
  IC50: 42.7 µM (active)
[14]
  IC50: > 66.6 µM (inactive)
[15]
  AC50: 29.7 µM (active)
[16]
  IC50: 5.35 µM (active)
[17]
  AC50: 132 µM (active)
[18]
  IC50: 98.6 µM (active)

## O=C(C1CCCCN1Cc1cccc(Cl)c1)N1CCN(c2ccc([N+](=O)[O-])cc2)CC1 (stereo unspecified)
[19]
  IC50: 2.9 µM (active)
[20]
  IC50: 2.8 µM (active)

## OCCOCCN1CCN(C(c2ccccc2)c2ccc(Cl)cc2)CC1 (stereo unspecified) [HYDROXYZINE PAMOATE]
[21]
  IC50: 6.31 µM (active)
